ChEMBL document CHEMBL4673281, “Influenza antiviral activity of F- and OH-containing isopulegol-derived octahydro-2H-chromenes” (Bioorg Med Chem Lett, 2021)
Calls of active or inactive are those of the source. The calls are words filed in the database; no cut-off is given here.

How the values were obtained:
[1] = Selectivity index, ratio of CC50 for MDCK cells to IC50 for Influenza A virus (A/Puerto Rico/8/34 (H1N1)) infected in MDCK cells; assay type: toxicity, cell-based; conditions: dog, read-out: Ratio CC50/IC50
[2] = Cytotoxicity against MDCK cells assessed as cell death incubated for 48 hrs by MTT assay; assay type: cell-based, Canis lupus familiaris; conditions: dog
[3] = system: Influenza A virus; assay: Antiviral activity against Influenza A virus (A/Puerto Rico/8/34 (H1N1) infected in MDCK cells assessed as decrease in viral titer preincubated for 1 hr followed by viral infection and cultivated for 48 hrs followed by supernatant transferred to chicken erythrocyte for 1 hr followed by measuring ability to cause positive hemagglutination; assay type: functional, organism-based; conditions: A/Puerto Rico/8/1934(H1N1)
[4] = system: Influenza A virus; assay: Antiviral activity against Influenza A virus (A/Puerto Rico/8/34(H1N1)) pdm09 infected in MDCK cells assessed as inhibition of virus infection at early stage by time of addition experiment; assay type: functional, organism-based; conditions: A/Puerto Rico/8/1934(H1N1)
[5] = system: Influenza A virus (A/Puerto Rico/8/1934(H1N1)); assay: Inhibition of Hemagglutinin in Influenza A virus (A/Puerto Rico/8/34(H1N1)); conditions: dose 0-300 µg/ml

| Compound | selectivity ratio [1] | CC50 at 48 h [2] [µM] | IC50 [3] [µM] | Activity [4] | inhibition [5] |
| --- | --- | --- | --- | --- | --- |
| COc1cc([C@H]2CC(C)(F)[C@@H]3CC[C@@H](C)C[C@H]3O2)cc(OC)c1OC (some centres undefined) | 3 | 568 | 199 | – | – |
| C[C@@H]1CC[C@@H]2[C@@H](C1)O[C@@H](c1ccc([N+](=O)[O-])cc1)CC2(C)F (some centres undefined) | 1 | > 976 | > 976 | – | – |
| COc1ccc([C@H]2CC(C)(F)[C@@H]3CC[C@@H](C)C[C@H]3O2)c(OC)c1OC (some centres undefined) | 22 | 133 | 6 | – | – |
| COc1cccc([C@H]2CC(C)(O)[C@@H]3CC[C@@H](C)C[C@H]3O2)c1OC (some centres undefined) | 1 | > 937 | > 937 | – | – |
| COc1cc(OC)c([C@H]2CC(C)(F)[C@@H]3CC[C@@H](C)C[C@H]3O2)c(OC)c1 (some centres undefined) | 35 | 851 | 24 | Active | Dose-dependent effect |
| C[C@@H]1CC[C@@H]2[C@@H](C1)O[C@@H](c1ccccc1O)CC2(C)F (some centres undefined) | 1 | 44 | > 36 | – | – |
| COc1cc(OC)c([C@H]2CC(C)(O)[C@@H]3CC[C@@H](C)C[C@H]3O2)cc1OC (some centres undefined) | 1 | > 857 | > 857 | – | – |
| COc1cc([C@H]2CC(C)(F)[C@@H]3CC[C@@H](C)C[C@H]3O2)cc(OC)c1O (some centres undefined) | 3 | 158 | 59 | – | – |
| C[C@@H]1CC[C@@H]2[C@@H](C1)O[C@@H](c1ccc(F)cc1)CC2(C)F (some centres undefined) | 2 | 68 | > 36 | – | – |
| COc1ccc([C@H]2CC(C)(O)[C@@H]3CC[C@@H](C)C[C@H]3O2)c(OC)c1OC (some centres undefined) | 1 | > 857 | 717 | – | – |
| COc1ccc([C@H]2CC(C)(O)[C@@H]3CC[C@@H](C)C[C@H]3O2)c(OC)c1 (some centres undefined) | 12 | > 937 | 78 | – | – |
| COc1ccc(OC)c([C@H]2CC(C)(F)[C@@H]3CC[C@@H](C)C[C@H]3O2)c1 (some centres undefined) | 1 | 37 | > 31 | – | – |
| CC(N)C12CC3CC(CC(C3)C1)C2 (centres undefined) [RIMANTADINE] | 5 | 326 | 69 | – | – |
| COc1ccc([C@H]2CC(C)(O)[C@@H]3CC[C@@H](C)C[C@H]3O2)cc1O (some centres undefined) | 6 | 738 | 118 | – | – |
| COc1cc(OC)c([C@H]2CC(C)(O)[C@@H]3CC[C@@H](C)C[C@H]3O2)c(OC)c1 (some centres undefined) | 45 | 856 | 19 | Active | Dose-dependent effect |
| C[C@@H]1CC[C@@H]2[C@@H](C1)O[C@@H](c1ccc(O)cc1)CC2(C)O (some centres undefined) | 1 | 127 | 87 | – | – |
| C[C@@H]1CC[C@@H]2[C@@H](C1)O[C@@H](c1ccccc1)CC2(C)F (some centres undefined) | 2 | 65 | > 38 | – | – |
| C[C@@H]1CC[C@@H]2[C@@H](C1)O[C@@H](c1ccc(Br)cc1)CC2(C)F (some centres undefined) | 2 | > 882 | 391 | – | – |
| C[C@@H]1CC[C@@H]2[C@@H](C1)O[C@@H](c1ccccc1)CC2(C)O (some centres undefined) | 6 | 580 | 100 | – | – |
| COc1ccc([C@H]2CC(C)(O)[C@@H]3CC[C@@H](C)C[C@H]3O2)cc1 (some centres undefined) | 24 | 689 | 29 | – | – |

| Compound | selectivity ratio [1] | CC50 at 48 h [2] [µM] | IC50 [3] [µM] | Activity [4] | inhibition [5] |
| --- | --- | --- | --- | --- | --- |
| COc1ccc([C@H]2CC(C)(F)[C@@H]3CC[C@@H](C)C[C@H]3O2)cc1OC (some centres undefined) | 2 | 20 | > 9 | – | – |
| NC(=O)c1ncn([C@@H]2O[C@H](CO)[C@@H](O)[C@H]2O)n1 [RIBAVIRIN] | 61 | > 2130 | 35 | – | – |
| COc1cc([C@H]2CC(C)(F)[C@@H]3CC[C@@H](C)C[C@H]3O2)ccc1O (some centres undefined) | 2 | 642 | > 324 | – | – |
| COc1ccc(OC)c([C@H]2CC(C)(O)[C@@H]3CC[C@@H](C)C[C@H]3O2)c1 (some centres undefined) | 2 | 512 | > 312 | – | – |
| C[C@@H]1CC[C@@H]2[C@@H](C1)O[C@@H](c1ccc(Cl)cc1)CC2(C)O (some centres undefined) | 2 | 62 | > 37 | – | – |
| COc1ccc([C@H]2CC(C)(O)[C@@H]3CC[C@@H](C)C[C@H]3O2)cc1OC (some centres undefined) | 3 | > 937 | 344 | – | – |
| COc1cc([C@H]2CC(C)(O)[C@@H]3CC[C@@H](C)C[C@H]3O2)cc(OC)c1OC (some centres undefined) | 1 | 405 | > 285 | – | – |
| C[C@@H]1CC[C@@H]2[C@@H](C1)O[C@@H](c1ccc(O)cc1)CC2(C)F (some centres undefined) | 3 | 95 | > 36 | – | – |
| COc1cc([C@H]2CC(C)(O)[C@@H]3CC[C@@H](C)C[C@H]3O2)ccc1O (some centres undefined) | 1 | 411 | > 327 | – | – |
| COc1ccc([C@H]2CC(C)(F)[C@@H]3CC[C@@H](C)C[C@H]3O2)cc1O (some centres undefined) | 4 | 136 | > 32 | – | – |
| COc1cccc([C@H]2CC(C)(F)[C@@H]3CC[C@@H](C)C[C@H]3O2)c1OC (some centres undefined) | 4 | 180 | 43 | – | – |
| COc1cc([C@H]2CC(C)(O)[C@@H]3CC[C@@H](C)C[C@H]3O2)cc(OC)c1O (some centres undefined) | 2 | 473 | 235 | – | – |
| COc1ccc([C@H]2CC(C)(F)[C@@H]3CC[C@@H](C)C[C@H]3O2)c(OC)c1 (some centres undefined) | 2 | 379 | 155 | – | – |
| COc1ccc([C@H]2CC(C)(F)[C@@H]3CC[C@@H](C)C[C@H]3O2)cc1 (some centres undefined) | 2 | 171 | > 103 | – | – |
| COc1cc(OC)c([C@H]2CC(C)(F)[C@@H]3CC[C@@H](C)C[C@H]3O2)cc1OC (some centres undefined) | 13 | 78 | 6 | – | – |
| C[C@@H]1CC[C@@H]2[C@@H](C1)O[C@@H](c1ccc(F)cc1)CC2(C)O (some centres undefined) | 2 | 65 | > 36 | – | – |
| C[C@@H]1CC[C@@H]2[C@@H](C1)O[C@@H](c1ccc([N+](=O)[O-])cc1)CC2(C)O (some centres undefined) | 3 | > 982 | 393 | – | – |
| C[C@@H]1CC[C@@H]2[C@@H](C1)O[C@@H](c1ccc(Cl)cc1)CC2(C)F (some centres undefined) | 2 | 57 | 29 | – | – |
| C[C@@H]1CC[C@@H]2[C@@H](C1)O[C@@H](c1ccc(Br)cc1)CC2(C)O (some centres undefined) | 1 | 132 | > 89 | – | – |
| C[C@@H]1CC[C@@H]2[C@@H](C1)O[C@@H](c1ccccc1O)CC2(C)O (some centres undefined) | 1 | > 1090 | > 1090 | – | – |
